Laboratory results as given in patent US20160298129A1, “ALS INHIBITOR HERBICIDE TOLERANT MUTANT PLANTS” (BAYER CROPSCIENCE NV, priority 2013, published 2016).

Columns and labels:
AHAS W574L = AHAS W574L (Arabidopsis thaliana, UniProt P17597, E575Q/W574L); assay type: biochemical
Method: (§1) Bacteria are grown at 37° C. in LB-medium containing 100 mg/l carbenicillin and 25 mg/l canamycin, induced with 1 mM isopropyl-β-D-thiogalactopyranoside at an OD600 of 0.6, cultivated for 16 hours at 18° C. and harvested by, e.g., centrifugation. Bacterial pellets are resuspended in 100 mM sodium phosphate buffer pH 7.0 containing 0.1 mM thiamine-pyrophosphate, 1 mM MgCl2, and 1 μM FAD at a concentration of 1 gram wet weight per 25 ml of buffer and disrupted by, e.g., sonification. The crude protein extract obtained after centrifugation is used for ALS activity measurements.
(§2) ALS protein can be extracted from leaves or tissue cultures, such as B. napus or B. juncea leaves, or B. napus or B. juncea tissue cultures as described by Ray (Plant Physiol, 1984, 75:827-831). An ALS assays can be carried out in 96-well microtiter plates using a modification of the procedure described by Ray (1984): The reaction mixture contains 20 mM potassium phosphate buffer pH 7.0, 20 mM sodium pyruvate, 0.45 mM thiamine-pyrophosphate, 0.45 mM MgCl2, 9 μM FAD. ALS enzyme and various concentrations of ALS inhibitors can be mixed in a final volume of 90 μl Assays can be initiated by adding enzyme and the assays can be terminated after 75 min incubation at 30° C. by the addition of 40 μl 0.5 M H2SO4.

AHAS P197S = AHAS P197S (Arabidopsis thaliana, UniProt P17597, E575Q/P197S); assay type: biochemical
Method: as §1, §2

AHAS P197S-D376E = AHAS P197S-D376E (Arabidopsis thaliana, UniProt P17597, D376E/E575Q/P197S); experiment: biochemical
AHAS P197S-D376E, sequence (P17597 56-670 P197S/D376E/E575Q): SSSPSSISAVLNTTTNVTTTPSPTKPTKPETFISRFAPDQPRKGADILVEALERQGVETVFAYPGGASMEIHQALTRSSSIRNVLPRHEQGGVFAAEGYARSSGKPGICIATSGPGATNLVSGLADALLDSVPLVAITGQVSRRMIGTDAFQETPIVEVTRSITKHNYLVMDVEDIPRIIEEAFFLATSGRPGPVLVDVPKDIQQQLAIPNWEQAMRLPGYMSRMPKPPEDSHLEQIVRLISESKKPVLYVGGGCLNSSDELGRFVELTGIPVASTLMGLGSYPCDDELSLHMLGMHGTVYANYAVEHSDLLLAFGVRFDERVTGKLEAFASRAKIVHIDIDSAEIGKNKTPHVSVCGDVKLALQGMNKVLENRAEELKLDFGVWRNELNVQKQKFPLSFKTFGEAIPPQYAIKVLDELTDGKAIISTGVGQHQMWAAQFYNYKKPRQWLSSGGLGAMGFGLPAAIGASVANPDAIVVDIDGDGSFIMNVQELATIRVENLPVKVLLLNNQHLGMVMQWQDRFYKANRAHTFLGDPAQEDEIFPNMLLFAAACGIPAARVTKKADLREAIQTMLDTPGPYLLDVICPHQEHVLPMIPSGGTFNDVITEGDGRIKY
Method: as §1, §2

AHAS D376E-W574L = AHAS D376E-W574L (Arabidopsis thaliana, UniProt P17597, D376E/E575Q/W574L); experiment: biochemical
AHAS D376E-W574L, sequence (P17597 56-670 D376E/W574L/E575Q): as the sequence (P17597 56-670 P197S/D376E/E575Q) above, with S142P, W519L counted along it
Method: as §1, §2

AHAS WT [1] = target: AHAS WT (Arabidopsis thaliana, UniProt P17597); experiment: biochemical
AHAS WT (Arabidopsis thaliana, UniProt P17597), sequence (P17597 56-670 E575Q): as the sequence (P17597 56-670 P197S/D376E/E575Q) above, with S142P, E321D counted along it
Method: as §1, §2

AHAS D376E = AHAS D376E (Arabidopsis thaliana, UniProt P17597, D376E/E575Q); experiment: biochemical
Method: as §1, §2

AHAS P197S-W574L = AHAS P197S-W574L (Arabidopsis thaliana, UniProt P17597, E575Q/P197S/W574L); experiment: biochemical
AHAS P197S-W574L, sequence (P17597 56-670 P197S/W574L/E575Q): as the sequence (P17597 56-670 P197S/D376E/E575Q) above, with E321D, W519L counted along it
Method: as §1, §2

AHAS P197S-D376E-W574L = AHAS P197S-D376E-W574L (Arabidopsis thaliana, UniProt P17597, D376E/E575Q/P197S/W574L); experiment: biochemical
AHAS P197S-D376E-W574L, sequence (P17597 56-670 P197S/D376E/W574L/E575Q): as the sequence (P17597 56-670 P197S/D376E/E575Q) above, with W519L counted along it
Method: as §1, §2

AHAS WT [2] = target: AHAS WT (Arabidopsis thaliana, UniProt P17597, E575Q); experiment: biochemical; conditions: AHAS WT
AHAS WT (Arabidopsis thaliana, UniProt P17597, E575Q), sequence (P17597 56-670 E575Q): as the sequence (P17597 56-670 P197S/D376E/E575Q) above, with S142P, E321D counted along it
Method: as §1, §2

AHAS enzymatic activity = experiment: Kinetic parameters of enzymatic activity of AHAS mutants; assay type: biochemical
Method: The ALS inhibitor sensitivity and kinetic parameters of AHAS proteins comprising the P197S mutation, the W574L mutation, the D376E mutation, and combinations thereof in one protein, were determined essentially as described in WO 2013/127766.

Row | Molecule | Resistance Factor (AHAS W574L) | Resistance Factor (AHAS P197S) | IC50 (AHAS P197S-D376E) [µM] | Resistance Factor (AHAS P197S-D376E; AHAS P197S-D376E) | IC50 (AHAS D376E-W574L) [µM] | Resistance Factor (AHAS D376E-W574L; AHAS D376E-W574L) | IC50 (AHAS WT [1]) [nM] | IC50 (AHAS D376E) [µM] | Resistance Factor (AHAS D376E; AHAS D376E) | IC50 (AHAS P197S-W574L) [µM] | Resistance Factor (AHAS P197S-W574L; AHAS P197S-W574L) | IC50 (AHAS P197S-D376E-W574L) [µM] | Resistance Factor (AHAS P197S-D376E-W574L; AHAS P197S-D376E-W574L) | Km (AHAS enzymatic activity) [mM] | Vmax (AHAS enzymatic activity) [deltaOD550/min mg protein] | relative Vmax (AHAS enzymatic activity) | other results
1 | CCS(=O)(=O)c1nc2ccccn2c1S(=O)(=O)NC(=O)Nc1nc(OC)cc(OC)n1 [Sulfosulfuron, sulfosulfuron] | >4641 | 1848 | > 100 | >4641 | > 100 | >4641 | 20 | 25.1 | 1166 | > 100 | >4641 | > 100 | >4641 |  |  |  | 
2 | COc1cc(OC)nc(NC(=O)NS(=O)(=O)c2ncccc2C(=O)N(C)C)n1 [Nicosulfuron, nicosulfuron] | >607 | 6 | > 100 | >607 | > 100 | >607 | 158 | > 100 | >607 | > 100 | >607 | > 100 | >607 |  |  |  | 
3 | CCS(=O)(=O)c1cccnc1S(=O)(=O)NC(=O)Nc1nc(OC)cc(OC)n1 [Rimsulfuron, rimsulfuron] | 447 | 18 | > 100 | >4466 | > 100 | >4466 | 20 | 1.26 | 56 | > 100 | >4466 | > 100 | >4466 |  |  |  | 
4 | COc1ncc(F)c2nc(S(=O)(=O)Nc3c(F)cccc3F)nn12 [Florasulam, florasulam] | 1738 | 28 |  | 2754 |  | >6918 |  |  | 55 |  | >6918 |  | >6918 |  |  |  | pI50 (AHAS W574L): 4.6; pI50 (AHAS P197S): 6.4; pI50 (AHAS P197S-D376E; AHAS P197S-D376E): 4.4; pI50 (AHAS D376E-W574L; AHAS D376E-W574L): <4; pI50 (AHAS WT [2]): 7.8; pI50 (AHAS D376E; AHAS D376E): 6.1; pI50 (AHAS P197S-W574L; AHAS P197S-W574L): <4; pI50 (AHAS P197S-D376E-W574L; AHAS P197S-D376E-W574L): <4
5 | D376E: AHAS protein with glutamic acid instead of aspartic acid at position 376 of SEQ ID NO: 10 (protein, listed as Arabidopsis thaliana) MAAATTTTTTSSSISFSTKPSPSSSKSPLPISRFSLPFSLNPNKSSSSSRRRGIKSSSPSSISAVLNTTTNVTTTPSPTKPTKPETFISRFAPDQPRKGADILVEALERQGVETVFAYPGGASMEIHQALTRSSSIRNVLPRHEQGGVFAAEGYARSSGKPGICIATSGPGATNLVSGLADALLDSVPLVAITGQVPRRMIGTDAFQETPIVEVTRSITKHNYLVMDVEDIPRIIEEAFFLATSGRPGPVLVDVPKDIQQQLAIPNWEQAMRLPGYMSRMPKPPEDSHLEQIVRLISESKKPVLYVGGGCLNSSDELGRFVELTGIPVASTLMGLGSYPCDDELSLHMLGMHGTVYANYAVEHSDLLLAFGVRFDERVTGKLEAFASRAKIVHIDIDSAEIGKNKTPHVSVCGDVKLALQGMNKVLENRAEELKLDFGVWRNELNVQKQKFPLSFKTFGEAIPPQYAIKVLDELTDGKAIISTGVGQHQMWAAQFYNYKKPRQWLSSGGLGAMGFGLPAAIGASVANPDAIVVDIDGDGSFIMNVQELATIRVENLPVKVLLLNNQHLGMVMQWQDRFYKANRAHTFLGDPAQEDEIFPNMLLFAAACGIPAARVTKKADLREAIQTMLDTPGPYLLDVICPHQEHVLPMIPSGGTFNDVITEGDGRIKY |  |  |  |  |  |  |  |  |  |  |  |  |  | 1.4 | 103.0 | 2.7 | 
6 | W574L: AHAS protein with leucine instead of tryptophan at position 574 of SEQ ID NO: 10 (protein, listed as Arabidopsis thaliana) MAAATTTTTTSSSISFSTKPSPSSSKSPLPISRFSLPFSLNPNKSSSSSRRRGIKSSSPSSISAVLNTTTNVTTTPSPTKPTKPETFISRFAPDQPRKGADILVEALERQGVETVFAYPGGASMEIHQALTRSSSIRNVLPRHEQGGVFAAEGYARSSGKPGICIATSGPGATNLVSGLADALLDSVPLVAITGQVPRRMIGTDAFQETPIVEVTRSITKHNYLVMDVEDIPRIIEEAFFLATSGRPGPVLVDVPKDIQQQLAIPNWEQAMRLPGYMSRMPKPPEDSHLEQIVRLISESKKPVLYVGGGCLNSSDELGRFVELTGIPVASTLMGLGSYPCDDELSLHMLGMHGTVYANYAVEHSDLLLAFGVRFDDRVTGKLEAFASRAKIVHIDIDSAEIGKNKTPHVSVCGDVKLALQGMNKVLENRAEELKLDFGVWRNELNVQKQKFPLSFKTFGEAIPPQYAIKVLDELTDGKAIISTGVGQHQMWAAQFYNYKKPRQWLSSGGLGAMGFGLPAAIGASVANPDAIVVDIDGDGSFIMNVQELATIRVENLPVKVLLLNNQHLGMVMQLQDRFYKANRAHTFLGDPAQEDEIFPNMLLFAAACGIPAARVTKKADLREAIQTMLDTPGPYLLDVICPHQEHVLPMIPSGGTFNDVITEGDGRIKY |  |  |  |  |  |  |  |  |  |  |  |  |  | 7 | 54.4 | 1.4 | 
7 | P197S: AHAS protein with serine instead of proline at position 197 of SEQ ID NO: 10 (protein, listed as Arabidopsis thaliana) MAAATTTTTTSSSISFSTKPSPSSSKSPLPISRFSLPFSLNPNKSSSSSRRRGIKSSSPSSISAVLNTTTNVTTTPSPTKPTKPETFISRFAPDQPRKGADILVEALERQGVETVFAYPGGASMEIHQALTRSSSIRNVLPRHEQGGVFAAEGYARSSGKPGICIATSGPGATNLVSGLADALLDSVPLVAITGQVSRRMIGTDAFQETPIVEVTRSITKHNYLVMDVEDIPRIIEEAFFLATSGRPGPVLVDVPKDIQQQLAIPNWEQAMRLPGYMSRMPKPPEDSHLEQIVRLISESKKPVLYVGGGCLNSSDELGRFVELTGIPVASTLMGLGSYPCDDELSLHMLGMHGTVYANYAVEHSDLLLAFGVRFDDRVTGKLEAFASRAKIVHIDIDSAEIGKNKTPHVSVCGDVKLALQGMNKVLENRAEELKLDFGVWRNELNVQKQKFPLSFKTFGEAIPPQYAIKVLDELTDGKAIISTGVGQHQMWAAQFYNYKKPRQWLSSGGLGAMGFGLPAAIGASVANPDAIVVDIDGDGSFIMNVQELATIRVENLPVKVLLLNNQHLGMVMQWQDRFYKANRAHTFLGDPAQEDEIFPNMLLFAAACGIPAARVTKKADLREAIQTMLDTPGPYLLDVICPHQEHVLPMIPSGGTFNDVITEGDGRIKY |  |  |  |  |  |  |  |  |  |  |  |  |  | 5.5 | 50.0 | 1.3 | 
